Where “and” joins values, the source holds several entries; their conditions need not be identical. Equal values may be shown once. Where a SMILES comes first, the peptide text is derived from it. Bridges are numbered along the chain shown (N, C = ends). Roman numbers before positions name the chains, in order. The star is where a group is joined. Palmitoyl = CCCCCCCCCCCCCCCC(=O)*; Myristoyl = CCCCCCCCCCCCCC(=O)*; Lauroyl = CCCCCCCCCCCC(=O)*
What was measured:
Type in all cases: cell-based
[1] = system: Enterococcus faecalis ATCC 29212; assay: MBFIC assay (biofilm formation inhibition, resazurin); settings: ca. 5 × 10^8 CFU/mL in MHB II, 37 °C, 18 h, visual, triplicate; for MBFIC E. faecalis, CL: contact lenses (CL, Etafilcon A hydrogel) in 24-well plates; for MBFIC E. faecalis, PS: polystyrene plates (PS), 96-well
Protocol: (§1) To determine the inhibitory effect of antimicrobials on the formation of biofilm on hydrophobic surfaces, the bacterial suspensions of strains (initial inoculum of ca. 5 × 10^8 CFU/mL in MHB II medium supplemented with antimicrobials) were cultured on 96-well PS at 37 °C for 18 h under aerobic conditions. After incubation, the suspensions were aspirated, and the wells were rinsed three times with sterile phosphate buffer PBS (AppliChem, Darmstadt, Germany) in order to remove the planktonic cells. Resazurin (final concentration per sample = 0.005%) was applied as a cell viability reagent for reading the results. In contact with the living cells, the dye is metabolized by bacterial dehydrogenases, resulting in a reduction of blue resazurin to pink resorufin. All assays were performed in triplicate and included the growth controls (positive controls: bacterial suspensions without antimicrobials) and the sterility controls (negative controls: a sterile MBH medium). After 1h of incubation, a visual evaluation of results was made. […] In a preliminary study, it was established that the application of lipopeptides at a concentration found active from visual evaluation caused the reduction of bacterial metabolism to approximately 10% (or less) of the positive control once the results were evaluated with a spectrophotometer. After 1 h of incubation with the dye, absorbance was measured at 570 and 600 nm using a microplate reader (Thermo Fisher Scientific, Waltham, MA, USA). The metabolic activity of bacteria in the samples was measured according to the formula presented in the previous paper.
(§2) The MBFIC assay with CL was applied in order to access the influence of lipopeptides on the biofilm formation on hydrogel surfaces. The entire sterile CL (1-Day Acuvue Moist, containing Etafilcon A., purchased from Johnson & Johnson (Vision Care, Jacksonsville, FL, USA), were placed in 24-well PS (Orange Scientific, Braine-l’ Alleud, Belgium) and the MBFICs were determined according to the above protocol.

[2] = system: Escherichia coli ATCC 25922; assay: as above; settings: ca. 5 × 10^8 CFU/mL in MHB II, 37 °C, 18 h, visual, triplicate; for MBFIC E. coli, CL: contact lenses (CL, Etafilcon A hydrogel) in 24-well plates; for MBFIC E. coli, PS: polystyrene plates (PS), 96-well
Protocol: as §1, §2

[3] = system: Proteus mirabilis PCM 543; assay: as above; settings: ca. 5 × 10^8 CFU/mL in MHB II, 37 °C, 18 h, visual, triplicate; for MBFIC P. mirabilis, CL: contact lenses (CL, Etafilcon A hydrogel) in 24-well plates; for MBFIC P. mirabilis, PS: polystyrene plates (PS), 96-well
Protocol: as §1, §2

[4] = system: Pseudomonas aeruginosa ATCC 9027; assay: as above; settings: ca. 5 × 10^8 CFU/mL in MHB II, 37 °C, 18 h, visual, triplicate; for MBFIC P. aeruginosa, CL: contact lenses (CL, Etafilcon A hydrogel) in 24-well plates; for MBFIC P. aeruginosa, PS: polystyrene plates (PS), 96-well
Protocol: as §1, §2

[5] = system: Staphylococcus aureus ATCC 25923; assay: as above; settings: for MBFIC S. aureus, CL: contact lenses (CL, Etafilcon A hydrogel) in 24-well plates; for MBFIC S. aureus, CL / MBFIC S. aureus, PS: ca. 5 × 10^8 CFU/mL in MHB II, 37 °C, 18 h, resazurin, visual, triplicate; for MBFIC S. aureus, PS: polystyrene plates (PS), 96-well
Protocol: as §1, §2

[6] = system: Staphylococcus epidermidis ATCC 14990; assay: as above; settings: for MBFIC S. epidermidis, CL: contact lenses (CL, Etafilcon A hydrogel) in 24-well plates; for MBFIC S. epidermidis, CL / MBFIC S. epidermidis, PS: ca. 5 × 10^8 CFU/mL in MHB II, 37 °C, 18 h, resazurin, visual, triplicate; for MBFIC S. epidermidis, PS: polystyrene plates (PS), 96-well; for concentrations inhibiting formation of SE biofilm (MBFIC range): range over PS and CL
Protocol: as §1, §2

gram-positive strains = assay: MIC, broth microdilution, range over strains; settings: range over the gram-positive strains, liquid culture
Protocol: The MICs of synthetic lipopeptides and conventional antimicrobials were determined using the broth microdilution method according to the Clinical and Laboratory Standard Institute (CLSI) guidelines on reference strains. […] The PS were incubated under aerobic conditions at 37 °C for 18 h. The MIC (μg/mL) was assumed as the lowest concentration of the compound that inhibited the growth of the microorganisms. All experiments were performed in triplicate and included the growth and sterility controls.

Row | Compound | MBFIC E. faecalis, CL [1] | MBFIC E. faecalis, PS [1] | MBFIC E. coli, CL [2] | MBFIC E. coli, PS [2] | MBFIC P. mirabilis, CL [3] | MBFIC P. mirabilis, PS [3] | MBFIC P. aeruginosa, CL [4] | MBFIC P. aeruginosa, PS [4] | MBFIC S. aureus, CL [5] | MBFIC S. aureus, PS [5] | MBFIC S. epidermidis, CL [6] | MBFIC S. epidermidis, PS [6] | concentrations inhibiting formation of SE biofilm (MBFIC range) [6] [µg/mL] | concentrations inhibiting growth of gram-positive strains (MIC range) (gram-positive strains) [mg/L] | concentrations inhibiting formation of SA biofilm (MBFIC range) ([5]; range over PS and CL) [µg/mL]
1 | CCCCCCCCCCCC(=O)N[C@@H](CCCCN)C(=O)N[C@@H](CCCCN)C(=O)N[C@@H](CSSC[C@H](NC(=O)[C@H](CCCCN)NC(=O)[C@H](CCCCN)NC(=O)CCCCCCCCCCC)C(N)=O)C(N)=O [Lipopeptide 1, C12-KKC-NH2] (I: Lauroyl-Lys-Lys-Cys-NH2 / II: Lauroyl-Lys-Lys-Cys-NH2; disulfide I:3-II:3) | 64 µg/mL | 16 µg/mL | 128/128 μg/mL | 128/128 μg/mL | >512/>512 μg/mL | >512/>512 μg/mL | 128 µg/mL | 512 µg/mL | 32/32 μg/mL | 32/32 μg/mL | 16 µg/mL | 8 µg/mL | 8 to 16 | 2 to 8 | –
2 | CCCCCCCCCCCCCC(=O)N[C@@H](CCCCN)C(=O)N[C@@H](CCCCN)C(=O)N[C@@H](CSSC[C@H](NC(=O)[C@H](CCCCN)NC(=O)[C@H](CCCCN)NC(=O)CCCCCCCCCCCCC)C(N)=O)C(N)=O [Lipopeptide 3, C14-KKC-NH2] (I: Myristoyl-Lys-Lys-Cys-NH2 / II: Myristoyl-Lys-Lys-Cys-NH2; disulfide I:3-II:3) | 64 µg/mL | 256 µg/mL | 64 µg/mL | 256 µg/mL | 512/512 μg/mL | 512/512 μg/mL | 512/512 μg/mL | 512/512 μg/mL | 32 µg/mL | 64 µg/mL | 32 µg/mL | 64 µg/mL | – | – | –
3 | CCCCCCCCCCCCCC(=O)N[C@@H](CCCCN)C(=O)N[C@@H](CCCNC(=N)N)C(N)=O [Lipopeptide 4, C14-KR-NH2] (Myristoyl-Lys-Arg-NH2) | 64 µg/mL | 128 µg/mL | 128/128 μg/mL | 128/128 μg/mL | 512/>512 μg/mL | 512/>512 μg/mL | 128 µg/mL | 256 µg/mL | 2 µg/mL | 16 µg/mL | 32/32 μg/mL | 32/32 μg/mL | – | – | 2 to 16
4 | CCCCCCCCCCCCCCCC(=O)N[C@@H](CCCCN)C(=O)NCC(=O)N[C@@H](CCCCN)C(N)=O [Lipopeptide 5, C16-KGK-NH2] (Palmitoyl-Lys-Gly-Lys-NH2) | 64/64 μg/mL | 64/64 μg/mL | 128 µg/mL | 64 µg/mL | >512/512 μg/mL | >512/512 μg/mL | 256 µg/mL | 512 µg/mL | 32/32 μg/mL | 32/32 μg/mL | 64 µg/mL | 32 µg/mL | – | – | –
5 | CCCCCCCCCCCCCCCC(=O)N[C@@H](CCCCN)C(=O)N[C@@H](CCCCN)C(=O)N[C@@H](CCCCN)C(N)=O [Lipopeptide 7, C16-KKK-NH2] | 64/64 μg/mL | 64/64 μg/mL | 32 µg/mL | 64 µg/mL | 256 µg/mL | 512 µg/mL | 512/512 μg/mL | 512/512 μg/mL | 32/32 μg/mL | 32/32 μg/mL | 32 µg/mL | 8 µg/mL | – | – | –
6 | CCCCCCCCCCCCCCCC(=O)N[C@@H](CCCCN)C(=O)N[C@@H](CCCNC(=N)N)C(N)=O [Lipopeptide 8, C16-KR-NH2] (Palmitoyl-Lys-Arg-NH2) | 64/64 μg/mL | 64/64 μg/mL | 64 μg/mL and 64/64 μg/mL | 64 μg/mL and 64/64 μg/mL | 512/512 μg/mL | 512/512 μg/mL | 128 µg/mL | 512 µg/mL | 16 µg/mL | 8 µg/mL | 32 µg/mL | 16 µg/mL | – | – | –
7 | (C10)2-KKKK-NH2 [Lipopeptide 9] | 64/64 μg/mL | 64/64 μg/mL | 64 µg/mL | 128 µg/mL | 512/512 μg/mL | 512/512 μg/mL | 64 μg/mL and 64/64 μg/mL | 64 μg/mL and 64/64 μg/mL | 16 µg/mL | 8 µg/mL | 16 µg/mL | 8 µg/mL | 8 to 16 | – | –
